Here are results for nine compounds from patent US20220002314A1 (priority 2018, published 2022).

The target in test [1] is Human μ-opioid receptor (Homo sapiens, UniProt P35372). Kind of test: biochemical. It counts as binding.
The target of test [2] is Human α2δ-1 subunit of Cav2.2 calcium channel (Homo sapiens, UniProt P54289). Nature of the test: biochemical. Format: binding.

Like-named read-outs stand apart in the source and are kept apart here.

Chain of Human μ-opioid receptor (P35372 whole entry): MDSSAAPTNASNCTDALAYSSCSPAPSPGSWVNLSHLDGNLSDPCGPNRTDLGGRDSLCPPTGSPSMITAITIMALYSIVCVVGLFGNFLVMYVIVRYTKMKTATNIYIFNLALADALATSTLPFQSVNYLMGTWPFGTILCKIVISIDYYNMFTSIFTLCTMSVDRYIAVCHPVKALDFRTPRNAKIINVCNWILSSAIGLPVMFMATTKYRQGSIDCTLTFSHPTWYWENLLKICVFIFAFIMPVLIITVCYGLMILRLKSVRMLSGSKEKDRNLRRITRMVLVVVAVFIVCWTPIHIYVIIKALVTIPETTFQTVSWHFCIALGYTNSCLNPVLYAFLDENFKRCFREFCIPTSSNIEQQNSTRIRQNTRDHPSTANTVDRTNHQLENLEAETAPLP
Chain of Human α2δ-1 subunit of Cav2.2 calcium channel (P54289 25-1103): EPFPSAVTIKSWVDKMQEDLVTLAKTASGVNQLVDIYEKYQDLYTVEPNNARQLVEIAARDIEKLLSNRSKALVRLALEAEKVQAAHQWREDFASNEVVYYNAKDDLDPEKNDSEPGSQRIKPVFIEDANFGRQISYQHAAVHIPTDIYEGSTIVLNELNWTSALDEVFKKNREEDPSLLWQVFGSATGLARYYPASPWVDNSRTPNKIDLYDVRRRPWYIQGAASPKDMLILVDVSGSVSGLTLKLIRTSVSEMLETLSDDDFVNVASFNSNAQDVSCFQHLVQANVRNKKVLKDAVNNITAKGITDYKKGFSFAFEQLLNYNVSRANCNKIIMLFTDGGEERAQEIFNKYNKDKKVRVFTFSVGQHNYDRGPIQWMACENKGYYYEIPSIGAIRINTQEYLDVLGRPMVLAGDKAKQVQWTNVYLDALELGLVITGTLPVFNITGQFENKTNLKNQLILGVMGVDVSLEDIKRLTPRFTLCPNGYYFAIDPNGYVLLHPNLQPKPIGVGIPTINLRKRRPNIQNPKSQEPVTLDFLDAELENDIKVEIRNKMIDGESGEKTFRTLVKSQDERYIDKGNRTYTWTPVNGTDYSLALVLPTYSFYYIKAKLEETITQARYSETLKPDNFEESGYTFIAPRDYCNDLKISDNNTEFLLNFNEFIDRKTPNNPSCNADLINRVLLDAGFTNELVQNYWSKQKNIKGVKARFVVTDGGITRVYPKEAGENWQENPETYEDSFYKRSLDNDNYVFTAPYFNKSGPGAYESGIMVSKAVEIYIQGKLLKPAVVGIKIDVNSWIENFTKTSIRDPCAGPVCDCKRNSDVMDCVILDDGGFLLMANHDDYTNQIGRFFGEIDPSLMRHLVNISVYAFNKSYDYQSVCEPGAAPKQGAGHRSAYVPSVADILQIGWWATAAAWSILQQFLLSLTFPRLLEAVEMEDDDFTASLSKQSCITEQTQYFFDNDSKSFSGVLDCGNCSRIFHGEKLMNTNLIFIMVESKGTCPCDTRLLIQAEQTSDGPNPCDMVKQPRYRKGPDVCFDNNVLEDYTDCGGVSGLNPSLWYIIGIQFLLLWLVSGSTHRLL

Regarding `CCC[C@@H](c1nc2ccc(Br)cc2c(=O)n1CC)N1C[C@H](C)N[C@@H](C)C1` [Example 227, 6-Bromo-2-((S)-1-((3S,5S)-3,5-dimethylpiperazin-1-yl)butyl)-3-ethylquinazolin-4(3H)-one], the Ki in test [1] is more than 500 nM; in test [2], more than 5000 nM.
In the same order, the values of `CCCC(c1nc2ccc(CCN(C)Cc3ccccc3)cc2c(=O)n1CC)N1C[C@@H](C)N[C@@H](C)C1` (stereo partly drawn) [Example 174, 6-(2-(Benzyl(methyl)amino)ethyl)-2-(1-((3S,5R)-3,5-dimethylpiperazin-1-yl)butyl)-3-ethylquinazolin-4(3H)-one] are more than 500 nM and less than 500 nM.
The like results for `CCCC(c1nc2ccc(N(C)CCNC)cc2c(=O)n1CC)N1C[C@@H](C)N[C@@H](C)C1` (stereo partly drawn) [Example 146, 2-(1-((3S,5R)-3,5-dimethylpiperazin-1-yl)butyl)-3-ethyl-6-(methyl(2-(methylamino)ethyl)amino)quinazolin-4(3H)-one] were, in that order, more than 500 nM and less than 500 nM.
In the same order, the values of `CCCC(c1nc2ccc(NCCNC)cc2c(=O)n1CC)N1C[C@@H](C)N[C@@H](C)C1` (stereo partly drawn) [Example 145, 2-(1-((3S,5R)-3,5-dimethylpiperazin-1-yl)butyl)-3-ethyl-6-((2-(methylamino)ethyl)amino)quinazolin-4(3H)-one] are more than 500 nM and less than 500 nM.
With `CCCC(c1nc2ccc(Br)cc2c(=O)n1CCC(=O)O)N1C[C@@H](C)N[C@@H](C)C1` (stereo partly drawn) [Example 125, 3-(6-Bromo-2-(1-((3S,5R)-3,5-dimethylpiperazin-1-yl)butyl)-4-oxoquinazolin-3(4H)-yl)propanoic acid], the Ki in test [1] fell in the range of 100 to 500 nM; in test [2] it was 500 to 5000 nM.
As to `CCC[C@H](c1nc2ccc(Cl)cc2c(=O)n1CC)N1CCN[C@H](C)C1` [Example 101, 6-Chloro-3-ethyl-2-((R)-1-((R)-3-methylpiperazin-1-yl)butyl)quinazolin-4(3H)-one], the Ki is more than 500 nM in test [1] and less than 500 nM in test [2].
In the same order, the values of `CCC[C@H](c1nc2c(F)cc(F)cc2c(=O)n1CC)N1CCN[C@@H](C)C1` [Example 201, 3-ethyl-6,8-difluoro-2-((R)-1-((S)-3-methylpiperazin-1-yl)butyl)quinazolin-4(3H)-one] are less than 100 nM and less than 500 nM.
Turning to `CCCC(c1nc2ccc(Br)cc2c(=O)n1CC(=O)O)N1C[C@@H](C)N[C@@H](C)C1` (stereo partly drawn) [Example 126, 2-(6-bromo-2-(1-((3S,5R)-3,5-dimethylpiperazin-1-yl)butyl)-4-oxoquinazolin-3(4H)-yl)acetic acid], the Ki was more than 500 nM in test [1] (read-out: μ-binding) and more than 5000 nM in test [2] (read-out: α2δ-1 binding).
Consider `CCC[C@H](c1nc2ccc(Cl)cc2c(=O)n1C)N1CCN[C@@H](C)C1` [Example 198, 6-chloro-3-methyl-2-((R)-1-((S)-3-methylpiperazin-1-yl)butyl)quinazolin-4(3H)-one], for which the Ki in test [1] is 100 to 500 nM; in test [2] it was less than 500 nM.
